ChEMBL document CHEMBL3745627, “A Methylene Group on C-2 of 24,24-Difluoro-19-nor-1α,25-dihydroxyvitamin D3 Markedly Increases Bone Calcium Mobilization in Vivo” (J Med Chem, 2015)

Assays:
[1] = target: T1, Vitamin D3 receptor (Rattus norvegicus, UniProt P13053); assay: Displacement of [3H]1alpha,25-(OH)2D3 from full-length recombinant rat VDR by scintillation counter
T1 sequence (P13053 whole entry): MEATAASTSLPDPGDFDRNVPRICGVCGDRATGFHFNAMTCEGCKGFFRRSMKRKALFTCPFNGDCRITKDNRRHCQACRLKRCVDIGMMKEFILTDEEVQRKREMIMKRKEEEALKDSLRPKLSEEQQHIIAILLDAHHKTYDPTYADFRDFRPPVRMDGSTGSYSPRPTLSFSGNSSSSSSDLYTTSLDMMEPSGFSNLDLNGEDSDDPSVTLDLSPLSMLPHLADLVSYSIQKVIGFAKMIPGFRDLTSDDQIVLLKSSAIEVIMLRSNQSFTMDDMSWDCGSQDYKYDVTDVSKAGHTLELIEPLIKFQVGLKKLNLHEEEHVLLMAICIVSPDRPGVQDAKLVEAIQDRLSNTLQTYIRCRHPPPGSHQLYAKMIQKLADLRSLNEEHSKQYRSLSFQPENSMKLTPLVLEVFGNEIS

[2] = system: HL-60; assay: Induction of human HL60 cell differentiation assessed as differentiation from promyelocytes to monocytes by NBT assay; format: functional; settings: read-out: ED50 (the source's name)
[3] = system: HL-60; assay: Potency index, ratio ED50 of 1alpha,25-(OH)2D3 to ED50 of compound for induction of human HL60 cell differentiation; format: functional
[4] = target: T2, Vitamin D3 receptor (Rattus norvegicus) (UniProt P13053); assay: Transactivation of VDR in rat osteosarcoma cells assessed as 24-hydroxylase transcriptional activity by luciferase reporter gene assay; format: cell-based
T2 sequence (whole entry): T1 sequence (P13053 whole entry)

[5] = system: Rattus norvegicus; assay: Induction of bone mobilization activity in weaning Sprague-Dawley rat assessed as increase in serum calcium level at 16 pmol, ip for 4 consecutive dose at an interval of 24 hrs measured 24 hrs after last dose (reference value: 4.4 to 4.5 mg/dl); format: functional
[6] = system: Rattus norvegicus; assay: Induction of bone mobilization activity in weaning Sprague-Dawley rat assessed as increase in serum calcium level at 780 pmol, ip for 4 consecutive dose at an interval of 24 hrs measured 24 hrs after last dose (reference value: 4.4 to 4.5 mg/dl); format: functional
[7] = system: Rattus norvegicus; assay: Induction of bone mobilization activity in weaning Sprague-Dawley rat assessed as increase in serum calcium level at 260 pmol, ip for 4 consecutive dose at an interval of 24 hrs measured 24 hrs after last dose (reference value: 4.4 to 4.5 mg/dl); format: functional
[8] = system: Rattus norvegicus; assay: Induction of intestinal calcium transport in weaning Sprague-Dawley rat assessed as ratio of calcium level in serosal to mucosal at 16 pmol, ip for 4 consecutive dose at an interval of 24 hrs measured 24 hrs after last dose (reference value: 3.7 to 4.8); format: functional
[9] = system: Rattus norvegicus; assay: Induction of intestinal calcium transport in weaning Sprague-Dawley rat assessed as ratio of calcium level in serosal to mucosal at 780 pmol, ip for 4 consecutive dose at an interval of 24 hrs measured 24 hrs after last dose (reference value: 3.7 to 4.8); format: functional
[10] = system: Rattus norvegicus; assay: Induction of intestinal calcium transport in weaning Sprague-Dawley rat assessed as ratio of calcium level in serosal to mucosal at 260 pmol, ip for 4 consecutive dose at an interval of 24 hrs measured 24 hrs after last dose (reference value: 3.7 to 4.8); format: functional
[11] = system: Rattus norvegicus; assay: Induction of bone mobilization activity in weaning Sprague-Dawley rat assessed as increase in serum calcium level at 87 pmol, ip for 4 consecutive dose at an interval of 24 hrs measured 24 hrs after last dose (reference value: 4.4 to 4.5 mg/dl); format: functional
[12] = system: Rattus norvegicus; assay: Induction of bone mobilization activity in weaning Sprague-Dawley rat assessed as increase in serum calcium level at 32 pmol, ip for 4 consecutive dose at an interval of 24 hrs measured 24 hrs after last dose (reference value: 4.4 to 4.5 mg/dl); format: functional
[13] = system: Rattus norvegicus; assay: Induction of intestinal calcium transport in weaning Sprague-Dawley rat assessed as ratio of calcium level in serosal to mucosal at 32 pmol, ip for 4 consecutive dose at an interval of 24 hrs measured 24 hrs after last dose (reference value: 3.7 to 4.8); format: functional

Row | Compound | Ki [1] | EC50 [2] | ED50 [4] | Ratio ED50 [3] | Activity [5] | Activity [6] | Activity [7] | Ratio [8] | Ratio [9] | Ratio [10] | Activity [11] | Activity [12] | Ratio [13]
1 | C=C1[C@H](O)CC(=C/C=C2\CCC[C@]3(C)[C@@H]([C@@H](C)CCC(F)(F)C(C)(C)O)CC[C@@H]23)C[C@H]1O | 0.03 nM | 0.03 nM | 0.02 nM | 100 | 5.8 mg/dL | 9.8 mg/dL | 9.5 mg/dL | 6.6 | 8.7 | 12.4 |  |  | 
2 | C=C1/C(=C\C=C2/CCC[C@]3(C)[C@@H]([C@H](C)CCCC(C)(C)O)CC[C@@H]23)C[C@@H](O)C[C@@H]1O [CALCITRIOL] |  |  |  |  | 5.3 mg/dL | 7.6 mg/dL |  |  |  |  | 6.6 mg/dL |  | 
3 | C[C@H](CCC(F)(F)C(C)(C)O)[C@H]1CC[C@H]2/C(=C/C=C3C[C@@H](O)C[C@H](O)C3)CCC[C@]12C | 0.02 nM | 0.05 nM | 0.04 nM | 60 |  | 5.9 mg/dL | 4.9 mg/dL |  | 7.7 | 6.9 |  | 4.9 mg/dL | 9.4
4 | C[C@@H](CCC(F)(F)C(C)(C)O)[C@H]1CC[C@H]2/C(=C/C=C3C[C@@H](O)C[C@H](O)C3)CCC[C@]12C | 0.03 nM | 0.06 nM | 0.04 nM | 50 | 5.8 mg/dL | 9.8 mg/dL | 8.5 mg/dL | 6.6 | 11.5 | 8.8 |  |  | 

Second part, led by results:

Row | Ki [1] | EC50 [2] | ED50 [4] | Compound | Ratio ED50 [3] | Activity [5] | Activity [6] | Activity [7] | Ratio [8] | Ratio [9] | Ratio [10] | Activity [11] | Activity [12] | Ratio [13]
5 | 0.03 nM | 0.02 nM | 0.007 nM | C=C1[C@H](O)CC(=C/C=C2\CCC[C@]3(C)[C@@H]([C@H](C)CCCC(C)(C)O)CC[C@@H]23)C[C@H]1O | 150 |  |  |  |  |  |  |  |  | 
6 | 0.04 nM | 0.1 nM | 0.01 nM | C=C1[C@H](O)CC(=C/C=C2\CCC[C@]3(C)[C@@H]([C@H](C)CCC(F)(F)C(C)(C)O)CC[C@@H]23)C[C@H]1O | 30 |  | 11.2 mg/dL | 9.4 mg/dL |  | 16.4 | 11.6 |  | 6 mg/dL | 11.7
